Assay results published in patent US20260219274A1, “POLYOL SWEETNERS AND CARDIOVASCULAR AND THROMBOTIC EVENT RISK” (THE CLEVELAND CLINIC FOUNDATION, priority 2023, published 2026).

What was measured:
[1] = tested on: washed human platelets; test: Intracellular calcium measurements in Fura 2-filled washed platelets; assay type: cell-based; conditions: for thrombin-evoked intracellular Ca2+ release: submaximal (0.02 U) thrombin, pre-incubation with the polyol
Experimental: Measurement of intracellular calcium release in washed platelets was performed as previously described.^41 Further details are provided in supplemental methods.
To isolate washed platelets for intracellular Ca^2+ measurements, PRP was prepared as described above. Next, 100 nM prostaglandin E1 (PGE-1, Catalogue #P5512, Sigma, St. Louis, MO, USA) was added to the PRP and centrifuged at 500×g for 20 min at 22° C. as previously described.^6 After a gentle wash in a modified phosphate buffer saline (NaCl (137 mM), KCl (2.7 mM), Na2HPO4 (12 mM), MgCl2 (1 mM), and glucose (5.5 mM), pH 7.4) with PGE-1 (100 nM), the platelet pellet was spun again at 500×g for 20 min. The platelet pellet was re-suspended in modified Hank's buffered salt solution (HBSS-BSA-glucose; NaCl (0.137 M), KCl (5.4 mM), Na2HPO4 (0.25 mM KH2PO4 (0.44 mM), CaCl2 (1.3 mM), MgSO4 (1.0 mM), NaHCO3 (4.2 mM), glucose (5 mM) and BSA (0.1%)) with 100 nM PGE-1 and incubated with Fura 2-AM ([…]) at 22° C. After 30 min of incubation, an additional centrifugation at 500×g for 30 min was performed to remove excess Fura 2-AM. After resuspension in modified Hank's buffered salt solution the platelet pellet was incubated with xylitol at the indicated concentrations or vehicle for 30 min at 22° C. Intracellular Ca^2+ release was initiated by submaximal concentration of thrombin (0.02 U/mL) and changes in intracellular Ca^2+ monitored via Fura 2-AM fluorescence using 340/380 nm dual-wavelength excitation and an emission of 510 nm.
Washed platelets for intracellular Ca^2+ measurements were prepared by adding 100 nM prostaglandin E1 (PGE-1, Catalogue #P5512, Sigma, St. Louis, MO, USA) to PRP and centrifugation at 500×g, 20 min at 22° C. as previously described^26,51. […] Intra-cellular calcium release was induced by submaximal concentration of thrombin (0.02 U/mL) and changes monitored via Fura 2-AM fluorescence using 340/380 nm dual-wavelength excitation and an emission of 510 nm.

[2] = tested on: washed human platelets; test: Platelet flow cytometry assay (P-selectin, PAC-1); assay type: cell-based; conditions: for ADP-stimulated P-selectin surface expression / ADP-stimulated glycoprotein α2β3 (GP IIb/IIIa) activation: pre-incubation with the polyol, ADP 2 μM
Experimental: Antibody staining of washed platelets for flow cytometry was performed as described previously^41 with further information outlined in additional methods. […]
Washed platelets and antibody staining for flow cytometry was performed as described previously using sodium citrate (0.109 M) as anti-coagulant^51. Washed platelets were separated by centrifugation at 500×g for 10 min and re-suspended in modified Hank's buffered salt solution without PGE1. Final platelet suspensions (100 μL; 2×10^8 platelets/mL) were then pre-incubated with erythritol, glucose or 1,5-AHG (at indicated concentrations) for 30 min at 22° C. Platelets were then stimulated with 2 μM ADP for 10 min and incubated with PE conjugated anti-P-selectin (CD62P-PE, Catalogue #555524, BD PharMingen, San Diego, CA, USA; 2.5 μL/100 μL) or Fluorescein isothiocyanate (FITC) conjugated PAC1 (binds only to active conformation of GP IIb/IIIa, Catalogue #3 40507, BD PharMingen, San Diego, CA, USA; 5 μL/100 μL) or isotype control antibody (PE IgG isotype control, Catalogue #555749 or FITC IgM Isotype control, Catalogue #555583, BD PharMingen, San Diego, CA, USA) in the dark for 20 min. The platelet suspensions were then fixed with 100 μL of 2% paraformaldehyde. Data was acquired on a flow cytometer (FACS LSR Fortessa, BD Biosciences, Franklin Lakes, New Jersey, USA). Twenty thousand (20,000) events were collected. The data was analyzed with FACSDiva Software (v.9.0) (BD Biosciences). Platelets were gated to exclude doublets (FIG. 28) and the raw mean fluorescent intensity (MFI) of either P-selectin (CD62P) or PAC-1 was quantified.

[3] = cited from earlier work

Row | SMILES | thrombin-evoked intracellular Ca2+ release [1] | erythritol concentration eliciting significant increase in stimulus-dependent (thrombin) intracellular calcium ([1]; threshold, FIG. 17) | ADP-stimulated P-selectin surface expression [2] | ADP-stimulated glycoprotein α2β3 (GP IIb/IIIa) activation [2] | erythritol concentration eliciting significant stimulus-dependent enhancement in P-selectin surface expression ([2]; threshold, FIG. 17) | erythritol concentration eliciting significant stimulus-dependent enhancement in activated GP IIbIIIa surface expression ([2]; threshold, FIG. 17) | well tolerated daily dose ([3]; digestive tolerance) | effect on blood sugar / insulin ([3]; in vivo) | metabolism and excretion upon ingestion ([3]; in vivo)
1 | OC[C@@H](O)[C@@H](O)CO [erythritol] | enhanced | 45 µM | dose-dependent enhancement | dose-dependent enhancement | 18 µM | 4.5 µM | up to 1 g/kg | no short-term insulinemic or glycemic effects | poorly metabolized and mostly excreted in the urine
2 | OC[C@@H](O)[C@H](O)[C@@H](O)CO [xylitol] | dose-dependently enhanced | – | dose-dependent enhancement | dose-dependent enhancement | – | – | – | negligible impact | –
